The record followed here is article PMC11855827, “High-Throughput Screening of Five Compound Libraries for Anthelmintic Activity and Toxicity Leads to the Discovery of Two Flavonoid Compounds” (International Journal of Molecular Sciences, 2025).

Where two headings read alike, the source gives them in different places.

In the assay the test system is C. elegans. Description: microbe, parasite or virus in culture. The settings on record: Caenorhabditis elegans.
Setting [1] is: 0 h, read-out: Percentage of motility inhibition 0 h, Table S2, C. elegans SS assay, 110 μM, 0 h, averages of 4 data points.
Where [2] appears, read: 24 h, read-out: Percentage of motility inhibition 24 h, Table S2, C. elegans SS assay, 110 μM, 24 h, averages of 4 data points.
Setting [3] is: 0 h, read-out: Percentage of motility inhibition 0 h.
The mark [4] stands for this setting: 24 h, read-out: Percentage of motility inhibition 24 h.

Turning to `COc1ccc2c(c1OC)CN(C)c1c-2ccc2cc3c(cc12)OCO3` [Dihydrochelerythrine], the inhibition at 110 µM reads like this: under setting [1], 0%; under setting [2], 7%.

For `O=C1c2c(O)cc(O)cc2O[C@H](c2ccc(O)cc2)[C@H]1O` [Dihydrokaempferol], the inhibition at 110 µM reads like this: under setting [1], 2%; under setting [2], 0%.

Take `O=C1c2c(O)cc(O)cc2O[C@H](c2cc(O)c(O)c(O)c2)[C@H]1O` [Dihydromyricetin]: the inhibition at 110 µM came to 33% under setting [1] and 16% under setting [2].

Take `CN1Cc2c(ccc3c2OCO3)-c2ccc3cc4c(cc3c21)OCO4` [Dihydrosanguinarine]: the inhibition at 110 µM under setting [1] was found to be 0% and the inhibition at 110 µM under setting [2] worked out at 0%.

As for `Oc1c(I)cc(I)c2cccnc12` [Diiodohydroxyquinoline], the inhibition at 110 µM worked out at 38% under setting [1] and 40% under setting [2].

`Cc1ncc([N+](=O)[O-])n1C` [Dimetridazole]: the inhibition at 110 µM by setting is: under setting [1], 0%; under setting [2], 14%.

For `Cc1c(C(N)=O)cc([N+](=O)[O-])cc1[N+](=O)[O-]` [Dinitolmide], the inhibition at 110 µM is, setting by setting: under setting [1], 16%; under setting [2], 14%.

Take `CN/C(=N/CC1CCOC1)N[N+](=O)[O-]` (centres unmarked) [Dinotefuran]: the inhibition at 110 µM reads like this: under setting [3], 7%; under setting [4], 0%.

For `COc1ccc(-c2cc(=O)c3c(O)cc(O)cc3o2)cc1O` [Diosmetin], the inhibition at 110 µM under setting [3] worked out at 13% and the inhibition at 110 µM under setting [4] stood at 0%.

Regarding `CC[C@H]1OC(=O)[C@H](C)[C@@H](O[C@H]2C[C@@](C)(OC)[C@@H](O)[C@H](C)O2)[C@H](C)[C@@H](O[C@@H]2O[C@H](C)C[C@H](N(C)C)[C@H]2O)[C@](C)(O)C[C@@H](C)[C@@H]2N[C@@H](COCCOC)O[C@H]([C@H]2C)[C@]1(C)O` [Dirithromycin], the inhibition at 110 µM runs as follows: under setting [1], 3%; under setting [2], 0%.

As for `CC(=O)O[C@@]12CO[C@@H]1C[C@H](O)[C@@]1(C)C(=O)[C@H](O)C3=C(C)[C@@H](OC(=O)[C@H](O)[C@@H](NC(=O)OC(C)(C)C)c4ccccc4)C[C@@](O)([C@@H](OC(=O)c4ccccc4)[C@H]21)C3(C)C` [Docetaxel], the inhibition at 110 µM by setting is: under setting [1], 1%; under setting [2], 15%.

Regarding `C[C@@H]1CCO[C@H]2Cn3cc(C(=O)NCc4ccc(F)cc4F)c(=O)c(O)c3C(=O)N12` [Dolutegravir], the inhibition at 110 µM under setting [1] was 25% and the inhibition at 110 µM under setting [2] was determined as 3%.

`C=C1C[C@@]23CC[C@H]4[C@@](C)(CCC[C@@]4(C)C(=O)O[C@@H]4O[C@H](CO)[C@@H](O)[C@H](O)[C@H]4O)[C@@H]2CC[C@]1(O[C@@H]1O[C@H](CO)[C@@H](O)[C@H](O)[C@H]1O[C@@H]1O[C@@H](C)[C@H](O)[C@@H](O)[C@H]1O)C3` [Dulcoside A]: the inhibition at 110 µM amounted to 0% under setting [1] and 11% under setting [2].

For the compound `N[C@@H]1CON=C1O` [D‐Cycloserine], the inhibition at 110 µM under setting [1] was found to be 12% and the inhibition at 110 µM under setting [2] was determined as 13%.

In the case of `O=c1c2ccccc2[se]n1-c1ccccc1` [Ebselen], the inhibition at 110 µM reads like this: under setting [1], 13%; under setting [2], 12%.

On to `C=C(CC[C@@H](C(=O)O)[C@H]1CC[C@@]2(C)C3=C(CC[C@]12C)[C@@]1(C)CC[C@H](O)C(C)(C)[C@@H]1CC3)C(C)C` [Eburicoic acid], for which the inhibition at 110 µM runs as follows: under setting [1], 27%; under setting [2], 56%.

As for `COc1cc(O)ccc1/C=C/C(=O)c1ccc(O)cc1` [Echinatin], the inhibition at 110 µM under setting [1] was found to be 17% and the inhibition at 110 µM under setting [2] is 10%.

In the case of `O=C1Nc2ccc(Cl)cc2[C@@](C#CC2CC2)(C(F)(F)F)O1` [Efavirenz], the inhibition at 110 µM amounted to 29% under setting [1] and 29% under setting [2].

For the compound `CC/C=C\C/C=C\C/C=C\C/C=C\C/C=C\CCCC(=O)O` [Eicosapentaenoic Acid], the inhibition at 110 µM amounted to 0% under setting [1] and 4% under setting [2].

For the compound `COc1cc2c(cc1Cc1cccc(Cl)c1F)c(=O)c(C(=O)O)cn2[C@H](CO)C(C)C` [Elvitegravir], the inhibition at 110 µM reads like this: under setting [1], 23%; under setting [2], 48%.

Turning to `Nc1nc(=O)n([C@@H]2CS[C@H](CO)O2)cc1F` [Emtricitabine], the inhibition at 110 µM runs as follows: under setting [1], 26%; under setting [2], 32%.

Turning to `CC(=O)O[C@@H]1C[C@]23C4=CC[C@@]5(C)[C@H](C(=O)O)[C@@](C)([C@H](C)C(C)C)CC[C@]5(C)[C@H]4CC[C@H]2[C@@](C)(COC3O)[C@H]1O[C@@H]1O[C@H](CO)[C@@H](O)[C@H](O)[C@H]1O` (some centres unmarked) [Enfumafungin], the inhibition at 110 µM stood at 0% under setting [1] and 60% under setting [2].

Regarding `C=C(C)[C@@H]1CC[C@]2(C(=O)O)CC[C@]3(C)[C@H](CC[C@@H]4[C@@]5(C)CC[C@@H](O)C(C)(C)[C@@H]5CC[C@]43C)[C@@H]12` [Epibetulinic acid], the inhibition at 110 µM is 14% under setting [1] and 17% under setting [2].

For `CC(=O)O[C@@H]1C[C@H]2C(C)(C)C(=O)C=C[C@]2(C)[C@H]2CC[C@@]3(C)[C@H](c4ccoc4)C(=O)[C@H]4O[C@]43[C@@]21C` [Epoxyazadiradione], the inhibition at 110 µM is 19% under setting [1] and 47% under setting [2].

For `C[C@@H]1O[C@@H](OC[C@H]2O[C@@H](Oc3cc(O)c4c(c3)O[C@H](c3ccc(O)c(O)c3)CC4=O)[C@H](O)[C@@H](O)[C@@H]2O)[C@H](O)[C@H](O)[C@H]1O` [Eriocitrin], the inhibition at 110 µM under setting [1] stood at 54% and the inhibition at 110 µM under setting [2] stood at 16%.

In the case of `O=C1C[C@@H](c2ccc(O)c(O)c2)Oc2cc(O)cc(O)c21` [Eriodictyol], the inhibition at 110 µM runs as follows: under setting [1], 0%; under setting [2], 14%.

As to `CC1(C)CC[C@]2(CO)CC[C@]3(C)C(=CC[C@@H]4[C@@]5(C)CC[C@H](O)C(C)(C)[C@@H]5CC[C@]43C)[C@@H]2C1` [Erythrodiol], the inhibition at 110 µM under setting [1] turned out to be 11% and the inhibition at 110 µM under setting [2] is 68%.

In the case of `CCOC(=O)CCC(=O)O[C@H]1[C@H](O[C@@H]2[C@@H](C)[C@H](O[C@H]3C[C@@](C)(OC)[C@@H](O)[C@H](C)O3)[C@@H](C)C(=O)O[C@H](CC)[C@@](C)(O)[C@H](O)[C@@H](C)C(=O)[C@H](C)C[C@@]2(C)O)O[C@H](C)C[C@@H]1N(C)C` [Erythromycin Ethylsuccinate], the inhibition at 110 µM by setting is: under setting [1], 24%; under setting [2], 7%.

For `C/C=C(\C)C(=O)O[C@H]1[C@H](OC(C)=O)[C@]2(CO)[C@H](O)C[C@]3(C)C(=CC[C@@H]4[C@@]5(C)CC[C@H](O[C@@H]6O[C@H](C(=O)O)[C@@H](O[C@@H]7O[C@H](CO)[C@@H](O)[C@H](O)[C@H]7O)[C@H](O)[C@H]6O[C@@H]6O[C@H](CO)[C@@H](O)[C@H](O)[C@H]6O)[C@](C)(CO)[C@@H]5CC[C@]43C)[C@@H]2CC1(C)C` [Escin IA], the inhibition at 110 µM under setting [1] was determined as 0% and the inhibition at 110 µM under setting [2] was found to be 0%.

Turning to `C/C=C(/C)C(=O)O[C@H]1[C@H](OC(C)=O)[C@]2(CO)[C@H](O)C[C@]3(C)C(=CC[C@@H]4[C@@]5(C)CC[C@H](O[C@@H]6O[C@H](C(=O)O)[C@@H](O[C@@H]7O[C@H](CO)[C@@H](O)[C@H](O)[C@H]7O)[C@H](O)[C@H]6O[C@@H]6O[C@H](CO)[C@@H](O)[C@H](O)[C@H]6O)[C@](C)(CO)[C@@H]5CC[C@]43C)[C@@H]2CC1(C)C` [Escin IB], the inhibition at 110 µM by setting is: under setting [1], 0%; under setting [2], 0%.

In the case of `C[C@]12CC[C@@H]3c4ccc(O)cc4CC[C@H]3[C@@H]1CC[C@@H]2O` [Estradiol], the inhibition at 110 µM stood at 1% under setting [1] and 2% under setting [2].

Take `C[C@]12CC[C@@H]3c4ccc(O)cc4CC[C@H]3[C@@H]1C[C@@H](O)[C@@H]2O` [Estriol]: the inhibition at 110 µM under setting [1] is 2% and the inhibition at 110 µM under setting [2] came to 10%.

Take `C[C@]12CC[C@@H]3c4ccc(O)cc4CC[C@H]3[C@@H]1CCC2=O` [Estrone]: the inhibition at 110 µM runs as follows: under setting [1], 32%; under setting [2], 0%.

For the compound `C#C[C@]1(O)CC[C@H]2[C@@H]3CCc4cc(O)ccc4[C@H]3CC[C@@]21C` [Ethinylestradiol], the inhibition at 110 µM was 33% under setting [1] and 15% under setting [2].

Take `CCc1cc(C(N)=S)ccn1` [Ethionamide]: the inhibition at 110 µM runs as follows: under setting [1], 64%; under setting [2], 12%.

For `CCOC(=O)c1ccc(O)cc1` [Ethylparaben], the inhibition at 110 µM came out at 32% under setting [1] and 8% under setting [2].

With `COc1cc([C@@H]2c3cc4c(cc3[C@@H](O[C@@H]3O[C@@H]5CO[C@@H](C)O[C@H]5[C@H](O)[C@H]3O)[C@H]3COC(=O)[C@H]23)OCO4)cc(OC)c1O` [Etoposide], the inhibition at 110 µM is 0% under setting [1] and 4% under setting [2].

In the case of `Cc1cc(C#N)cc(C)c1Oc1nc(Nc2ccc(C#N)cc2)nc(N)c1Br` [Etravirine], the inhibition at 110 µM is, setting by setting: under setting [1], 17%; under setting [2], 2%.

Regarding `COc1ccc(-c2cc(=O)c3c(O)c(OC)c(OC)cc3o2)cc1O` [Eupatorin], the inhibition at 110 µM was 7% under setting [1] and 26% under setting [2].

In the case of `CC(C)=CCC[C@@H](C)[C@@H]1CC[C@]2(C)C3=C(CC[C@@]12C)[C@@]1(C)CC[C@H](O)C(C)(C)[C@@H]1CC3` [Euphol], the inhibition at 110 µM is, setting by setting: under setting [1], 0%; under setting [2], 41%.

For `C=C1[C@@H](O)[C@]2(O)OC[C@]34[C@H]2[C@@]2(C)[C@H](O)C(=O)C=C(C)[C@@H]2C[C@H]3OC(=O)[C@H](O)[C@@]14O` [Eurycomanone], the inhibition at 110 µM runs as follows: under setting [1], 0%; under setting [2], 4%.

Consider `C[C@@H]1CC[C@]2(C(=O)O)CC[C@]3(C)C(=CC[C@@H]4[C@@]5(C)C[C@@H](O)[C@@H](O)C(C)(C)[C@@H]5CC[C@]43C)[C@@H]2[C@]1(C)O` [Euscaphic acid], for which the inhibition at 110 µM came to 18% under setting [1] and 27% under setting [2].

As for `COc1ccc2c(OC)c3ccoc3nc2c1` [Evolitrine], the inhibition at 110 µM runs as follows: under setting [1], 0%; under setting [2], 15%.

In general, inhibition refers to the change of the read-out against control, counted positive when it falls.
